Values joined by “and” are separate entries in the source; they are usually repeats but may differ in a detail not shown here. Equal values may be shown once.
Tested on: db/db mice
Test: Blood-sugar-lowering activity in db/db obese mice (oral, daily for 5 days)
Format: in vivo
Details: for % change in blood glucose after 5 days of treatment (decrease): reduction vs day 0
Protocol: Db/db mice are commonly used as an in vivo model for studying type II diabetes in animals. Db/db (C57BLKS/J-m+/+Lepr^db) obese mice are obtained from Jackson Laboratories (Maine) and maintained in a temperature-controlled (25° C.) facility with a strict 12-h light/dark cycle and given free access to food and water. Mice are fed pelleted rodent chow which is low in fat (4% w/w). Fasting mice are orally administered with isovitexin dissolved in aqueous vehicle containing 50% PEG50% (10 mg/kg body weight) in a total volume of 200 μL or vehicle alone daily for 5 days. Food is removed from mice 4 hours before the collection of blood from the tail vein. Blood is obtained from mice by drawing one drop of blood (˜50 μL) from the tail vein for glucose analysis. Blood glucose is analyzed using a digital glucometer. Db/db obese mice (n=3: test; n=4: vehicle) were treated daily with 200 μL of isovitexin dissolved in an aqueous solution of PEG 50% (10 mg/kg body weight) or vehicle alone for 5 days. Blood glucose was estimated on day 0, one day prior to initiation of the treatment and on day 5, four hours after withdrawal of food. Blood was obtained from mice by drawing one drop of blood (˜50 μL) from the tail vein for glucose analysis. Blood glucose was analyzed using a digital glucometer and performed in duplicate. Blood glucose values are described as mg/dL±SD. The blood glucose levels in the vehicle treated group (n=4) were 446±35 on day 0 and 477±48 on day 5. […] The results are summarized in Tables 1 and 2 below, and FIG. 1.

O=c1cc(-c2ccc(O)cc2)oc2cc(O)c([C@@H]3O[C@H](CO)[C@@H](O)[C@H](O)[C@H]3O)c(O)c12 [Isovitexin, 4H-1-benzopyran-4-one, 6-β-D-glucopyranosyl-5,7-dihydroxy-2-(4-hydroxyphenyl)]
blood glucose levels, group mean on day 0 (db/db mice n=3, isovitexin group before treatment, ± SD): 493 ± 54 mg/dL
blood glucose levels, group mean on day 5 (db/db mice n=3, oral 10 mg/kg daily for 5 days, ± SD): 404 ± 10 mg/dL
lowering of blood glucose (in words) (db/db mice, 10 mg/kg body weight): effective in lowering of blood glucose
blood glucose levels, before treatment (day 0), individual mouse (db/db mice, isovitexin group baseline day 0, one day prior to treatment, ± SD of duplicate): 473 ± 6.36 mg/dL and 554 ± 7.07 mg/dL and 451 ± 21 mg/dL
blood glucose levels, after treatment with isovitexin (day 5), individual mouse (db/db mice, oral 10 mg/kg daily for 5 days, 4 h after food withdrawal, ± SD of duplicate, 10 mg/kg): 400 ± .71 mg/dL and 415 ± 21.9 mg/dL and 396 ± 2.12 mg/dL
% change in blood glucose after 5 days of treatment (decrease) (db/db mice, oral 10 mg/kg daily for 5 days, 10 mg/kg): 17.8 ± 7.21 (decrease) %
% change in blood glucose after 5 days of treatment (decrease) (db/db mice, oral 10 mg/kg daily for 5 days, listed as DP-1032T, 10 mg/kg): ~17.8%
